What all share (test): AK assay 384-well format, Prestwick library screening
One experiment has as its system P. aeruginosa. It is filed as cell-based, Pseudomonas aeruginosa. The settings on record: 50 μM final drug concentration; for fold induction at 50 µM: Pseudomonas aeruginosa, 3 h, cutoff for positive-scoring molecules 3-fold increase.
The next experiment relates to E. cloacae. It is filed as cell-based, Enterobacter cloacae. The settings on record: 50 μM final drug concentration; for fold induction at 50 µM: Enterobacter cloacae, 3 h, cutoff for positive-scoring molecules 3-fold increase.
The next experiment has as its system E. coli. The experiment is classed as cell-based, Escherichia coli. The settings on record: 50 μM final drug concentration; for fold induction at 50 µM: Escherichia coli, 3 h, cutoff for positive-scoring molecules 3-fold increase.
The test system of a further experiment is K. pneumoniae. The experiment is classed as cell-based, Klebsiella pneumoniae. The settings on record: 50 μM final drug concentration; for fold induction at 50 µM: Klebsiella pneumoniae, 3 h, cutoff for positive-scoring molecules 3-fold increase.
Experiment [1] relates to S. aureus strain USA300-0114. It is filed as cell-based, Staphylococcus aureus. The settings on record: 50 μM final drug concentration; for fold induction at 50 µM: Staphylococcus aureus, USA300, 3 h, cutoff for positive-scoring molecules 3-fold increase.
In experiment [2] the test system is A. baumannii strain 98-37-09. It is filed as cell-based, Acinetobacter baumannii. The settings on record: 50 μM final drug concentration; for fold induction at 50 µM: Acinetobacter baumannii, 983709, 3 h, cutoff for positive-scoring molecules 3-fold increase.
A further experiment concerns E. faecium. The experiment is classed as cell-based, Enterococcus faecium. The settings on record: 50 μM final drug concentration; for fold induction at 50 µM: Enterococcus faecium, 3 h, cutoff for positive-scoring molecules 3-fold increase.
Setting [3] is: planktonic P. aeruginosa, 384-well, read-out: AK-based Prestwick Library Screening Results: P. aeruginosa (increase in extracellular AK activity).
[4] abbreviates: planktonic E. cloacae, 384-well, read-out: AK-based Prestwick Library Screening Results: E. cloacae (increase in extracellular AK activity).
The mark [5] stands for this setting: planktonic E. coli, 384-well, read-out: AK-based Prestwick Library Screening Results: E. coli (increase in extracellular AK activity).
The mark [6] stands for this setting: planktonic K. pneumoniae, 384-well, read-out: AK-based Prestwick Library Screening Results: K. pneumoniae (increase in extracellular AK activity).
[7] abbreviates: planktonic S. aureus, 384-well, read-out: AK-based Prestwick Library Screening Results: S. aureus (increase in extracellular AK activity).
Where [8] appears, read: planktonic A. baumannii, 384-well, read-out: AK-based Prestwick Library Screening Results: A. baumannii (increase in extracellular AK activity).
[9] abbreviates: planktonic E. faecium, 384-well, read-out: AK-based Prestwick Library Screening Results: E. faecium (increase in extracellular AK activity).
Where [10] appears, read: planktonic P. aeruginosa, read-out: AK-based Prestwick Library Screening Results, P. aeruginosa (increase in extracellular AK activity).
Setting [11] is: planktonic E. cloacae, read-out: AK-based Prestwick Library Screening Results, E. cloacae (increase in extracellular AK activity).
The mark [12] stands for this setting: planktonic E. coli, read-out: AK-based Prestwick Library Screening Results, E. coli (increase in extracellular AK activity).
The mark [13] stands for this setting: planktonic K. pneumoniae, read-out: AK-based Prestwick Library Screening Results, K. pneumoniae (increase in extracellular AK activity).
Setting [14] is: planktonic S. aureus, read-out: AK-based Prestwick Library Screening Results, S. aureus (increase in extracellular AK activity).
Setting [15] is: planktonic A. baumannii, read-out: AK-based Prestwick Library Screening Results, A. baumannii (increase in extracellular AK activity).
[16] abbreviates: planktonic E. faecium, read-out: AK-based Prestwick Library Screening Results, E. faecium (increase in extracellular AK activity).
The mark [17] stands for this setting: 384-well format, read-out: AK-based Prestwick Library Screening Results, P. aeruginosa (increase in extracellular AK activity).
Setting [18] is: 384-well format, read-out: AK-based Prestwick Library Screening Results, E. cloacae (increase in extracellular AK activity).
Setting [19] is: 384-well format, read-out: AK-based Prestwick Library Screening Results, E. coli (increase in extracellular AK activity).
The mark [20] stands for this setting: 384-well format, read-out: AK-based Prestwick Library Screening Results, K. pneumoniae (increase in extracellular AK activity).
Where [21] appears, read: 384-well format, read-out: AK-based Prestwick Library Screening Results, S. aureus (increase in extracellular AK activity).
The mark [22] stands for this setting: 384-well format, read-out: AK-based Prestwick Library Screening Results, A. baumannii (increase in extracellular AK activity).
Where [23] appears, read: 384-well format, read-out: AK-based Prestwick Library Screening Results, E. faecium (increase in extracellular AK activity).

Structures can show the parent of a compound that is named as a salt. Where two headings read alike, the source gives them in different places.

With `Cc1nnc(SCC2=C(C(=O)O)N3C(=O)[C@@H](NC(=O)Cn4cnnn4)[C@H]3SC2)s1` [Cefazolin sodium salt], the fold induction at 50 µM in the experiment with P. aeruginosa (planktonic, read-out: AK-based Prestwick Library Screening Results, P. aeruginosa (fold increase in extracellular AK activity)) is 0.7; in the experiment with E. cloacae (planktonic, read-out: AK-based Prestwick Library Screening Results, E. cloacae (fold increase in extracellular AK activity)), 0.9; with E. coli (planktonic, read-out: AK-based Prestwick Library Screening Results, E. coli (fold increase in extracellular AK activity)), 16.5; in the experiment on K. pneumoniae (planktonic, read-out: AK-based Prestwick Library Screening Results, K. pneumoniae (fold increase in extracellular AK activity)), 3.6; in experiment [1] (planktonic, read-out: AK-based Prestwick Library Screening Results, S. aureus (fold increase in extracellular AK activity)) it was 3.1; in experiment [2] (planktonic, read-out: AK-based Prestwick Library Screening Results, A. baumannii (fold increase in extracellular AK activity)), 0.5. In addition, in the experiment with E. faecium (planktonic, read-out: AK-based Prestwick Library Screening Results, E. faecium (fold increase in extracellular AK activity)), the fold induction at 50 µM amounted to 0.9.

In the case of `CSc1ccc2c(c1)N(CCC1CCCCN1C)c1ccccc1S2` (stereo not drawn) [Thioridazine hydrochloride], the fold induction at 50 µM turned out to be 1.1 in the experiment on P. aeruginosa (setting [3]); 1.5 with E. cloacae (setting [4]); 1.6 with E. coli (setting [5]); 1.3 with K. pneumoniae (setting [6]); 1.3 in experiment [1] (setting [7]); 2.9 in experiment [2] (setting [8]). Further, in the experiment with E. faecium (setting [9]), the fold induction at 50 µM amounted to 1.

In the case of Guanadrel sulfate, the “AK-based Prestwick Library Screening Results, P. aeruginosa (fold increase in extracellular AK activity)” value with P. aeruginosa (planktonic, […]) was 1.1. Moreover, the “AK-based Prestwick Library Screening Results, E. cloacae (fold increase in extracellular AK activity)” value in the experiment on E. cloacae (planktonic, […]) is on record as 1.4. Also, the “AK-based Prestwick Library Screening Results, E. coli (fold increase in extracellular AK activity)” value with E. coli (planktonic, […]) is listed as 1.3. The “AK-based Prestwick Library Screening Results, K. pneumoniae (fold increase in extracellular AK activity)” value in the experiment on K. pneumoniae (planktonic, […]) was 0.7. For the same molecule, the “AK-based Prestwick Library Screening Results, S. aureus (fold increase in extracellular AK activity)” value in experiment [1] (planktonic, […]) was determined as 1.2. Moreover, the “AK-based Prestwick Library Screening Results, A. baumannii (fold increase in extracellular AK activity)” value in experiment [2] (planktonic, […]) worked out at 1.0. Moreover, the “AK-based Prestwick Library Screening Results, E. faecium (fold increase in extracellular AK activity)” value with E. faecium (planktonic, […]) is given as 1.0.

As to `CC(=O)Oc1ccc(C(c2ccc(OC(C)=O)cc2)c2ccccn2)cc1` [Bisacodyl], the fold induction at 50 µM with P. aeruginosa (setting [10]) worked out at 0.6; in the experiment on E. cloacae (setting [11]), 0.9; in the experiment on E. coli (setting [12]) it was 0.6; in the experiment on K. pneumoniae (setting [13]), 0.6; in experiment [1] (setting [14]) it was 0.5; in experiment [2] (setting [15]) it was 0.8. The fold induction at 50 µM in the experiment on E. faecium (setting [16]) was found to be 1.

Turning to `CC(C)(O/N=C(\C(=O)N[C@@H]1C(=O)N2C(C(=O)[O-])=C(C[n+]3ccccc3)CS[C@H]12)c1csc(N)n1)C(=O)O` [Ceftazidime pentahydrate], the fold induction at 50 µM in the experiment on P. aeruginosa (setting [10]) came to 7.8; in the experiment with E. cloacae (setting [11]) it was 12.9; in the experiment on E. coli (setting [12]), 11.5; in the experiment on K. pneumoniae (setting [13]) it was 3.2; in experiment [1] (setting [14]) it was 0.4; in experiment [2] (setting [15]) it was 0.5. Also, the fold induction at 50 µM in the experiment on E. faecium (setting [16]) was 0.9.

Consider `CN1CCN(C2=Nc3ccccc3Oc3ccc(Cl)cc32)CC1` [Loxapine succinate], for which the fold induction at 50 µM was determined as 0.9 in the experiment on P. aeruginosa (setting [3]); 1.3 in the experiment on E. cloacae (setting [4]); 1 in the experiment on E. coli (setting [5]); 1 with K. pneumoniae (setting [6]); 1.1 in experiment [1] (setting [7]); 1 in experiment [2] (setting [8]). In addition, the fold induction at 50 µM in the experiment on E. faecium (setting [9]) was 0.9.

As for `CCOC(=O)O[C@]1(C(=O)COC(=O)CC)CC[C@H]2[C@@H]3CCC4=CC(=O)C=C[C@]4(C)[C@H]3[C@@H](O)C[C@@]21C` [Prednicarbate], the fold induction at 50 µM with P. aeruginosa (read-out: AK-based Prestwick Library Screening Results, P. aeruginosa (fold increase in extracellular AK activity)) was 0.4; in the experiment with E. cloacae (read-out: AK-based Prestwick Library Screening Results, E. cloacae (fold increase in extracellular AK activity)) it was 0.3; with E. coli (read-out: AK-based Prestwick Library Screening Results, E. coli (fold increase in extracellular AK activity)), 0.4; in the experiment on K. pneumoniae (read-out: AK-based Prestwick Library Screening Results, K. pneumoniae (fold increase in extracellular AK activity)) it was 0.5; in experiment [1] (read-out: AK-based Prestwick Library Screening Results, S. aureus (fold increase in extracellular AK activity)) it was 0.4; in experiment [2] (read-out: AK-based Prestwick Library Screening Results, A. baumannii (fold increase in extracellular AK activity)) it was 0.4. Also, the fold induction at 50 µM with E. faecium (read-out: AK-based Prestwick Library Screening Results, E. faecium (fold increase in extracellular AK activity)) was 0.9.

For `CC1=NS(=O)(=O)c2cc(Cl)ccc2N1` [Diazoxide], the fold induction at 50 µM in the experiment with P. aeruginosa (setting [17]) came out at 0.4; in the experiment on E. cloacae (setting [18]) it was 0.4; in the experiment on E. coli (setting [19]), 0.5; with K. pneumoniae (setting [20]), 0.4; in experiment [1] (setting [21]), 0.5; in experiment [2] (setting [22]), 0.4. For the same molecule, in the experiment on E. faecium (setting [23]), the fold induction at 50 µM came out at 0.9.

As for `C#C[C@]1(O)CC[C@H]2[C@@H]3CCC4=CCCC[C@@H]4[C@H]3CC[C@@]21C` [Lynestrenol], the fold induction at 50 µM with P. aeruginosa (setting [17]) was 0.6; in the experiment with E. cloacae (setting [18]), 0.7; with E. coli (setting [19]), 0.7; with K. pneumoniae (setting [20]), 0.6; in experiment [1] (setting [21]), 0.5; in experiment [2] (setting [22]), 1.4. Moreover, the fold induction at 50 µM in the experiment on E. faecium (setting [23]) was determined as 0.9.

These data come from patent US10004701B2, “Methods and compositions for treating infection” (UNIVERSITY OF ROCHESTER, priority 2012, dated 2018).
